Where two headings read alike, the source gives them in different places. Some results are limits rather than exact numbers.

In general, half-life refers to the time needed for the level to fall by half in the phase considered. As a reminder, the AUC(0-inf) is total exposure, with the tail of the curve extrapolated. A lower AUC(0-inf) goes with less exposure. The Cmax is the maximum level reached in the sampled fluid or tissue. Broadly, the Tmax is the time at which the peak concentration occurs.

For one data set, the system named is 20-HETE. The note with it: read-out: inhibitory activity (inhibitor of 20-HETE); cited from earlier work.
In data set [1] the test system is cyclooxygenase and lipoxygenase. The note with it: cited from earlier work.
For data set [2] the following is noted: cited from earlier work.
For data set [3] the following is noted: cited from earlier work. The source holds these as a separate data set.
Data set [4] has as its system diet-induced obesity (DIO) mouse model. The data set can be described thus: Experiment 4: weight loss of compound 2 compared with semaglutide in DIO mouse model. In kind it is in vivo, Male C57BL/6J mice. The note with it: 30 nmol/kg subcutaneously once daily. An excerpt:
Experiment 4 was to compare the weight loss effects of compound 2 with that of semaglutide in a diet-induced obesity (DIO) mouse model. Male C57BL/6J mice were purchased from Vital River Laboratories (Shanghai) Co., Ltd. and housed in a barrier system animal facility. Animals were randomly divided into 4 groups: normal control group, DIO model control group, compound 2 treatment group, and semaglutide treatment group, with 6 animals per group. The model control group and treatment groups were first fed with high-fat diet (HFD) for 18 weeks, after which the treatment groups were administered with compound 2 or semaglutide, respectively. Compound 2 was administered orally at a dose of 30 mg/kg once daily for 14 consecutive weeks, while semaglutide was administered subcutaneously at a dose of 30 nmol/kg once daily. After 7 weeks of semaglutide treatment, the semaglutide treatment group was switched to compound 2 treatment for another 7 weeks.

For data set [5] the test system is unchanged. The data set can be described thus: Experiment 2: compound 2 and 4, weight loss and blood glucose lowering in DIO mouse model. In kind it is in vivo, Male C57BL/6J mice. The source says: Experiment 2 was to study the effects of compound 2 and 4 on weight loss and blood glucose lowering in a diet-induced obesity (DIO) mouse model. Male C57BL/6J mice were purchased from Zhuhai BST Biotechnology Co., Ltd. and housed in a barrier system animal facility. Animals were randomly divided into 4 groups: normal control group, DIO model control group, DIO model compound 2 treatment group, and DIO model compound 4 treatment group, with 4-5 animals per group. The model control group and treatment groups were first fed with high-fat diet (HFD) for 9 weeks (day 63), and then the treatment groups were orally administered with compound 2 or compound 4 at a dose of 50 mg/kg once daily for 4 consecutive weeks, while continuing to receive HFD. Animal weights were measured weekly, and on the last day of treatment, they were fasted overnight but allowed access to water before an oral glucose tolerance test (OGTT).

Data set [6] deals with recombinant CYP4F2 (rCYP4F2) (Homo sapiens (Human), UniProt P78329). The data set can be described thus: Inhibition of 20-HETE production by recombinant CYP4F2. Format: biochemical. To be noted: for inhibition at 0.1 µM: read-out: rCYP4F2 (% inh @ 100 nM). How it is done: (§1) Experimental principle: The inhibitory activity of 20-HETE production is evaluated by testing the inhibitory effects of the compound on human liver microsomes (HLM), rat liver microsomes (RLM), mouse liver microsomes (MLM), or […] CYP4 subtype enzymes (CYP4F2). This assay employs HLM, RLM, or MLM along with recombinant CYP4F2 (rCYP4F2) and recombinant CYP4A11 (rCYP4A11), which are […] CYP4 subtype enzymes, to detect the effects of the test compound at different concentrations on the metabolic rate of enzyme-specific substrates, to determine the inhibitory effects of the test compound on CYP enzymes in HLM, RLM, or MLM.
(§2) Experimental methods: Dissolve the test compound in DMSO, and subsequently dilute it with an acetonitrile and DMSO mixture (3:1). Add 2 μl of varying concentrations of the test compound and 100 μl of potassium phosphate buffer containing either liver microsomes or recombinant enzymes to a 96-well plate. After mixing well, transfer 30 μl to another well (in duplicate), add 15 μl of 400 μM substrate solution, and mix well again. Preheat at 37° C. for 10 minutes, and then add 15 μl of 6 mM NADPH and incubate at 37° C. for 25 minutes. After 25 minutes, add 160 μl of acetonitrile solution (containing 0.1 μg/ml internal standard) to stop the reaction. Mix well, centrifuge at 3500 g for 15 minutes, and then analyze the supernatant using LC-MS/MS.
(§3) Plot the compound concentration on the x-axis and the inhibition rate on the y-axis to draw the curve. Use GraphPad Prism 5 software to fit the curve and calculate the IC50. The formula is Y=Bottom+(Top−Bottom)/(1+10^((Log IC50−X)×HillSlope)). X represents the logarithmic concentration of the inhibitor, and Y represents the relative enzyme activity at a given inhibitor concentration (relative to the condition without the inhibitor).
(§4) Calculate the inhibition percentages at concentrations of 1000 nM, 500 nM, or 100 nM as well as the half-maximal inhibitory concentration (IC50) of the test compound from the above experiment.

Data set [7] relates to CYP enzymes in human liver microsomes (HLM). Nature of the data set: Inhibition of 20-HETE production in human liver microsomes (HLM). Format: biochemical. In short, it runs like this: (§5)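 Liver microsomes (human or mouse) or recombinant CYP4F2 or CYP4A11 in potassium phosphate buffer mixed with compound, then with 400 μM substrate solution (stock). After 10 min preincubation at 37 °C, reaction started with 6 mM NADPH solution (stock) and run 25 min at 37 °C. 20-HETE formation quantified by LC-MS/MS; IC50 from a four-parameter Hill fit, with percent inhibition also reported at 1000, 500 or 100 nM.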

Data set [8] concerns the target recombinant CYP4A11 (rCYP4A11) (Homo sapiens (Human), UniProt Q02928). Nature of the data set: Inhibition of 20-HETE production by recombinant CYP4A11. Format: biochemical. The note with it: for inhibition at 0.1 µM: read-out: rCYP4A11 (% inh @ 100 nM). As for the experimental part:
as §1, §2, §3, §4

For data set [9], the system named is CYP enzymes in rat liver microsomes (RLM). Nature of the data set: Inhibition of 20-HETE production in rat liver microsomes (RLM). In kind it is biochemical. Summed up: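 Test compounds were dissolved in DMSO, diluted in acetonitrile/DMSO (3:1), and 2 μl was mixed with 100 μl potassium phosphate buffer containing rat liver microsomes in a 96-well plate. Duplicate 30 μl aliquots received 15 μl of 400 μM substrate, were preheated at 37° C. for 10 minutes, then started with 15 μl of 6 mM NADPH for 25 minutes. LC-MS/MS measured 20-HETE formation.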
On the technique in general: Liver microsomes are vesicles of endoplasmic reticulum, rich in cytochrome P450 enzymes.

A short description of data set [10]: Pharmacokinetic (PK) experiment, oral administration in rats. To be noted: 20 mg/kg; for AUC(0-inf) / Cmax / Tmax / half-life / AUC(0-t): male, SD, rat, plasma; for AUC(0-t): read-out: AUC0-24. Format: in vivo, Male SD rats. In short, it runs like this:
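Fasted male SD rats (180-250 g) received 20 mg/kg orally in 30% sulfobutylether-β-cyclodextrin. Tail-vein blood sampled 15 min to 24 h post-dose into K2-EDTA; plasma protein-precipitated with acetonitrile containing internal standard and analysed by LC-MS/MS.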

In data set [11] the test system is CYP enzymes in mouse liver microsomes (MLM). The data set can be described thus: Inhibition of 20-HETE production in mouse liver microsomes (MLM). In kind it is biochemical. Summed up: as §5
Data set [12] deals with diet-induced obesity (DIO) mouse model. Nature of the data set: Experiment 1: compound 1, weight loss and blood glucose lowering in DIO mouse model. In kind it is in vivo, Male C57BL/6J mice. How it is done: Experiment 1 was to investigate the effects of compound 1 on weight loss and blood glucose lowering in a diet-induced obesity (DIO) mouse model. Male C57BL/6J mice were purchased from Zhuhai BST Biotechnology Co., Ltd. and housed in a barrier system animal facility. The animals were randomly divided into 3 groups: normal control group, DIO model control group, and DIO model compound 1 treatment group, with 6 animals per group. The treatment group received compound 1 orally at a dose of 100 mg/kg on the first day of high-fat diet (HFD) feeding, once daily for 32 consecutive days. Animal weights were measured weekly, and on day 33, they were fasted overnight but allowed access to water before an oral glucose tolerance test (OGTT).

Where [13] appears, read: 50 mg/kg orally once daily for 4 weeks, DIO mice.

Chain of recombinant CYP4F2 (rCYP4F2) (P78329 5-520): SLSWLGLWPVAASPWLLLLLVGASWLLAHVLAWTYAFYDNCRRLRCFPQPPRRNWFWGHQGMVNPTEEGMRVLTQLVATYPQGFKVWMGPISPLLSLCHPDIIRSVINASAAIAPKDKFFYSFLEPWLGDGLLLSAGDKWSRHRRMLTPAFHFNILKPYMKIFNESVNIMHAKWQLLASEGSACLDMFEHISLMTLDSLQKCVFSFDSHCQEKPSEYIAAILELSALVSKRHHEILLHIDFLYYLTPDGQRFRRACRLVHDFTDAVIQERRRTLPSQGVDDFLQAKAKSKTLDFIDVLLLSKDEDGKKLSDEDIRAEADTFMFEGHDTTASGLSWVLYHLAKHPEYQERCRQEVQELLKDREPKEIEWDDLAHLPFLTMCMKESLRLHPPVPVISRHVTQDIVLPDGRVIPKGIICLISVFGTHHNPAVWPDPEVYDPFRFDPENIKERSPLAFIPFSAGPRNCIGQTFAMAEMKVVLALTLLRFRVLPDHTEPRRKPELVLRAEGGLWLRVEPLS
Chain of recombinant CYP4A11 (rCYP4A11) (Q02928 5-519): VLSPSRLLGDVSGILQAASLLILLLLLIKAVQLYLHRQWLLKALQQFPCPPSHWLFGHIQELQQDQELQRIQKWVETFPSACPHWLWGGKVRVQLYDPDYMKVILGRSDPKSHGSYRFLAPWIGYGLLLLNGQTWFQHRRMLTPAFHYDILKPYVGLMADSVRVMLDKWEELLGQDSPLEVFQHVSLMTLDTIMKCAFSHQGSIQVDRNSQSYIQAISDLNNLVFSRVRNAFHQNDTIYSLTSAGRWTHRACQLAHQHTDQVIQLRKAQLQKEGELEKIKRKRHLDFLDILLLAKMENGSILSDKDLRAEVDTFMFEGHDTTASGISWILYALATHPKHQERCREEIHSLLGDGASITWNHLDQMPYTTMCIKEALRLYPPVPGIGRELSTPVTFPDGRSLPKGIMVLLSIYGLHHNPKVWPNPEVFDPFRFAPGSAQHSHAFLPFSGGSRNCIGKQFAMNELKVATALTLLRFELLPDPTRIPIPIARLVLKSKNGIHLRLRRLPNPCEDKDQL

Regarding `CCCCc1ccc(N=CNO)c(C)c1` [HET0016], the IC50 with 20-HETE is 8.9 nM. Besides, the “effect on the activity of cyclooxygenase and lipoxygenase” value in [1] is “no effect”. Moreover, the solubility entry in data set [2] is “poor”. For the same molecule, the half-life entry in data set [3] is listed as “short”.
Regarding semaglutide [reference compound], the “maximum weight-loss effect, decrease compared to the pre-treatment weight” value in [4] (after 2 weeks) is listed as “approximately 20%”. For the same molecule, the “food intake, fraction of the model control group” value in [4] (first 2 weeks) is “⅓ to ½”.
Take `O=C1CCCN1CC1CCN(c2ccc(-c3cn[nH]c3)c(F)c2F)CC1` [Compound 4, 1-((1-(2,3-difluoro-4-(1H-pyrazol-4-yl)phenyl)piperidin-4-yl)methyl)pyrrolidin-2-one]: in [5] (setting [13]), the fasting blood glucose entry was “inhibit the increase in fasting blood glucose” and the “glucose metabolism (OGTT)” value is listed as “enhance glucose metabolism”. Moreover, the “body weight decrease, of the pre-administration weight” value in [5] (50 mg/kg orally once daily, first week of administration, after 9 weeks HFD) was 12%-16%. In data set [6], the IC50 came out at 18.8 nM and the inhibition at 0.1 µM worked out at 61.7%. In addition, in data set [7], the IC50 is 25.8 nM and the “HLM (% inh @ 500 nM)” value turned out to be 85.53%. Also, the IC50 in data set [8] stood at 53.7 nM. In addition, in data set [9], the IC50 turned out to be 89.5 nM and the “RLM (% inh @ 500 nM)” value was 72.00%. Besides, in data set [10], the “absorption and blood exposure after oral administration (in words)” value (“absorption and blood exposure” below) was “well absorbed and exhibit high blood exposure”; the area under the curve AUC(0-inf) is 59000 ng·h/mL; the highest concentration (Cmax) was 7260 ng/mL; the time of peak concentration (Tmax) is 1.33 h. Moreover, in data set [10], the half-life is 3.9 h and the AUC(0-t) came out at 58100 ng·h/mL. For the same molecule, the IC50 in data set [11] was 1350 nM.
Turning to `O=C1CCCN1Cc1ccc(C2CCN(c3cn[nH]c3)CC2)cc1` [Reference 83, reference compound], the inhibition at 0.1 µM in data set [6] was 54.6%. For the same molecule, in data set [7], the IC50 amounted to 51.8 nM and the “HLM (% inh @ 500 nM)” value is listed as 79.09%. In addition, the inhibition at 0.1 µM in data set [8] came to 35.6%. In data set [9], the IC50 is 598 nM and the “RLM (% inh @ 500 nM)” value is 38.16%. Moreover, in [10], the AUC(0-inf) came out at 2640 ng·h/mL, the Cmax turned out to be 562 ng/mL, the time of peak concentration (Tmax) turned out to be 1.5 h and the half-life is 3.53 h. Also, in data set [10], the AUC(0-t) was determined as 2630 ng·h/mL. The molecule further showed an IC50 in data set [11] above 10000 nM.
`O=C(N1CCCC1)N1CCN(c2ccc(-c3cn[nH]c3)c(F)c2F)CC1` [Compound 72, (4-(2,3-difluoro-4-(1H-pyrazol-4-yl)phenyl)piperazin-1-yl)(pyrrolidin-1-yl) methanone]: in data set [6], the inhibition at 0.1 µM was determined as 70.1%. In [7], the IC50 amounted to 19.1 nM and the “HLM (% inh @ 500 nM)” value is on record as 89.73%. Also, in [8], the inhibition at 0.1 µM amounted to 50.6%. Besides, the IC50 in data set [9] stood at 5.36 nM. In data set [10], the “absorption and blood exposure” value is “well absorbed and exhibit high blood exposure”; the AUC(0-inf) came out at 86000 ng·h/mL; the highest concentration (Cmax) came to 7880 ng/mL; the Tmax was found to be 2.33 h. Further, in data set [10], the half-life is 2.51 h and the AUC(0-t) was 85800 ng·h/mL. In data set [11], the IC50 was 1330 nM.
Regarding `O=C1CCCN1CC1CCN(c2c(F)cc(-c3cn[nH]c3)cc2F)CC1` [Compound 5, 1-((1-(2,6-difluoro-4-(1H-pyrazol-4-yl)phenyl)piperidin-4-yl)methyl)pyrrolidin-2-one], in [6], the IC50 turned out to be 24.9 nM and the inhibition at 0.1 µM came to 71.1%. In data set [7], the IC50 stood at 28.1 nM and the “HLM (% inh @ 500 nM)” value stood at 81.03%. Further, in data set [8], the IC50 worked out at 39.6 nM. In data set [9], the IC50 amounted to 44.2 nM and the “RLM (% inh @ 500 nM)” value was found to be 66.71%. Further, in data set [10], the “absorption and blood exposure” value is “well absorbed and exhibit high blood exposure”; the AUC(0-inf) amounted to 124000 ng·h/mL; the Cmax was found to be 9270 ng/mL; the Tmax amounted to 2.67 h. In data set [10], the half-life is 8.11 h and the AUC(0-t) amounted to 103000 ng·h/mL. This molecule gave an IC50 in data set [11] of 946 nM.
Consider `O=C1CCCN1CC1CCN(c2ccc(-c3cn[nH]c3)cc2)CC1` [Compound 1, 1-((1-(4-(1H-pyrazol-4-yl)phenyl)piperidin-4-yl)methyl)pyrrolidin-2-one], for which, in [12] (100 mg/kg orally once daily for 32 days from first day of HFD), the body weight entry is “stabilized around the initial weight after 1 week and remained stable thereafter”. For the same molecule, the fasting blood glucose result in data set [12] (100 mg/kg orally once daily for 32 days, DIO mice) is given as “inhibit the increase in fasting blood glucose”. The “glucose metabolism (OGTT)” value in data set [12] (100 mg/kg orally once daily for 32 days, OGTT day 33) is “enhance glucose metabolism”. Also, in data set [6], the IC50 is 24 nM and the inhibition at 0.1 µM worked out at 59.5%. Moreover, the “HLM (% inh @ 500 nM)” value in [7] turned out to be 79.83%. For the same molecule, in [8], the inhibition at 0.1 µM came out at 35.4%. Further, in data set [9], the IC50 worked out at 224 nM and the “RLM (% inh @ 500 nM)” value stood at 54.99%. In addition, in [10], the “absorption and blood exposure” value is “well absorbed and exhibit high blood exposure”; the AUC(0-inf) is 125000 ng·h/mL; the highest level (Cmax) was 9980 ng/mL; the time of peak concentration (Tmax) stood at 1.5 h. For the same molecule, in data set [10], the half-life was 7.23 h and the AUC(0-t) stood at 113000 ng·h/mL. This molecule displayed an IC50 in data set [11] of 1220 nM.
